Results from patent US20150105252A1, “SUBSTITUTED PYRAZOLES AS HERBICIDES” (E I DU PONT DE NEMOURS AND COMPANY, priority 2013, published 2015).

What was measured:
kochia = assay: Test C postemergence; format: in vivo, Kochia scoparia; conditions: for Plant response rating (scale of 0 to 100 where 0 is no effect and 100 is complete control), Kochia: Postemergence, 31 g ai/ha, visually evaluated after 13 to 15 days; for Kochia plant response rating / Plant response rating, Kochia: postemergence; for Kochia plant response rating: 62 g ai/ha, scale 0 to 100
How it was run: (§1)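 In this greenhouse assay, seeded soil (loam plus sand) or emerged seedlings in peat-vermiculite medium were treated with formulated compound. Roughly two weeks later (13–15 days), each species was scored visually relative to controls, from 0 for no effect to 100 for complete control.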

crabgrass, large = assay: Test C postemergence; format: in vivo, Digitaria sanguinalis; conditions: for Plant response rating (scale of 0 to 100 where 0 is no effect and 100 is complete control), Crabgrass, Large: Postemergence, 31 g ai/ha, visually evaluated after 13 to 15 days; for Crabgrass, Large plant response rating / Plant response rating, Crabgrass, Large: postemergence; for Crabgrass, Large plant response rating: 62 g ai/ha, scale 0 to 100
How it was run: as §1

blackgrass = assay: Test C postemergence; format: in vivo, Alopecurus myosuroides; conditions: for Plant response rating (scale of 0 to 100 where 0 is no effect and 100 is complete control), Blackgrass: Postemergence, 31 g ai/ha, visually evaluated after 13 to 15 days; for Blackgrass plant response rating / Plant response rating, Blackgrass: postemergence; for Blackgrass plant response rating: 62 g ai/ha, scale 0 to 100
How it was run: as §1

velvetleaf = assay: Test C postemergence; format: in vivo, Abutilon theophrasti; conditions: for Plant response rating (scale of 0 to 100 where 0 is no effect and 100 is complete control), Velvetleaf: Postemergence, 31 g ai/ha, visually evaluated after 13 to 15 days; for Velvetleaf plant response rating / Plant response rating, Velvetleaf: postemergence; for Velvetleaf plant response rating: scale 0 to 100
How it was run: as §1

waterhemp = assay: Test C postemergence; format: in vivo, Amaranthus rudis; conditions: for Plant response rating (scale of 0 to 100 where 0 is no effect and 100 is complete control), Waterhemp: Postemergence, 31 g ai/ha, visually evaluated after 13 to 15 days; for Waterhemp plant response rating / Plant response rating, Waterhemp: postemergence; for Waterhemp plant response rating: scale 0 to 100
How it was run: as §1

barnyardgrass = assay: Test C postemergence; format: in vivo, Echinochloa crus-galli; conditions: for Plant response rating (scale of 0 to 100 where 0 is no effect and 100 is complete control), Barnyardgrass: Postemergence, 31 g ai/ha, visually evaluated after 13 to 15 days; for Barnyardgrass plant response rating / Plant response rating, Barnyardgrass: postemergence; for Barnyardgrass plant response rating: 62 g ai/ha, scale 0 to 100
How it was run: as §1

morningglory = assay: Test C postemergence; format: in vivo, Ipomoea coccinea; conditions: for Plant response rating (scale of 0 to 100 where 0 is no effect and 100 is complete control), Morningglory: Postemergence, 31 g ai/ha, visually evaluated after 13 to 15 days; for Morningglory plant response rating / Plant response rating, Morningglory: postemergence; for Morningglory plant response rating: 62 g ai/ha, scale 0 to 100
How it was run: as §1

oat, wild = assay: Test C postemergence; format: in vivo, Avena fatua; conditions: for Plant response rating (scale of 0 to 100 where 0 is no effect and 100 is complete control), Oat, Wild: Postemergence, 31 g ai/ha, visually evaluated after 13 to 15 days; for Oat, Wild plant response rating / Plant response rating, Oat, Wild: postemergence; for Oat, Wild plant response rating: 62 g ai/ha, scale 0 to 100
How it was run: as §1

galium = assay: Test C postemergence; format: in vivo, Galium aparine; conditions: for Plant response rating (scale of 0 to 100 where 0 is no effect and 100 is complete control), Galium: Postemergence, 31 g ai/ha, visually evaluated after 13 to 15 days; for Galium plant response rating / Plant response rating, Galium: postemergence; for Galium plant response rating: 62 g ai/ha, scale 0 to 100
How it was run: as §1

pigweed = assay: Test C postemergence; format: in vivo, Amaranthus retroflexus; conditions: for Plant response rating (scale of 0 to 100 where 0 is no effect and 100 is complete control), Pigweed: Postemergence, 31 g ai/ha, visually evaluated after 13 to 15 days; for Pigweed plant response rating / Plant response rating, Pigweed: postemergence; for Pigweed plant response rating: 62 g ai/ha, scale 0 to 100
How it was run: as §1

lambsquarters [1] = assay: Test C preemergence; format: in vivo, Chenopodium album; conditions: for Lambsquarters plant response rating / Plant response rating, Lambsquarters: preemergence; for Plant response rating, Lambsquarters: 125 g ai/ha, scale 0 to 100, 0 = no effect, 100 = complete control
How it was run: as §1

chickweed = assay: Test C postemergence; format: in vivo, Stellaria media; conditions: for Plant response rating (scale of 0 to 100 where 0 is no effect and 100 is complete control), Chickweed: Postemergence, 31 g ai/ha, visually evaluated after 13 to 15 days; for Chickweed plant response rating / Plant response rating, Chickweed: postemergence; for Chickweed plant response rating: 62 g ai/ha, scale 0 to 100
How it was run: as §1

wheat = assay: Test C postemergence; format: in vivo, Triticum aestivum; conditions: for Plant response rating (scale of 0 to 100 where 0 is no effect and 100 is complete control), Wheat: Postemergence, 31 g ai/ha, visually evaluated after 13 to 15 days; for Wheat plant response rating / Plant response rating, Wheat: postemergence; for Wheat plant response rating: scale 0 to 100
How it was run: as §1

lambsquarters [2] = assay: Test C postemergence; format: in vivo, Chenopodium album; conditions: for Plant response rating (scale of 0 to 100 where 0 is no effect and 100 is complete control), Lambsquarters: Postemergence, 31 g ai/ha, visually evaluated after 13 to 15 days; for Lambsquarters plant response rating / Plant response rating, Lambsquarters: postemergence; for Lambsquarters plant response rating: 62 g ai/ha, scale 0 to 100
How it was run: as §1

[3] = 250 g ai/ha, scale 0 to 100 (0 no effect, 100 complete control)
[4] = 125 g ai/ha, scale 0 to 100, 0 no effect, 100 complete control
[5] = 31 g ai/ha, visual rating, scale 0 to 100 (0 no effect, 100 complete control), 13 to 15 days
[6] = 62 g ai/ha, scale 0 to 100 (0 no effect, 100 complete control), 13 to 15 days

CCOc1cc(C(=O)NC2CC2)nn1Cc1ccnc(OC(F)F)c1 [Compound 133]
Plant response rating (scale of 0 to 100 where 0 is no effect and 100 is complete control), Kochia (kochia): 85 | Kochia plant response rating (kochia): 90 | Plant response rating, Kochia (kochia; [3]): 90 | Plant response rating, Kochia (kochia; [4]): 90 | Plant response rating (scale of 0 to 100 where 0 is no effect and 100 is complete control), Crabgrass, Large (crabgrass, large): 5 | Crabgrass, Large plant response rating (crabgrass, large): 5 | Plant response rating, Crabgrass, Large (crabgrass, large; [3]): 35 | Plant response rating, Crabgrass, Large (crabgrass, large; [4]): 10 | Plant response rating (scale of 0 to 100 where 0 is no effect and 100 is complete control), Blackgrass (blackgrass): 5 | Blackgrass plant response rating (blackgrass): 5 | Plant response rating, Blackgrass (blackgrass; [3]): 10 | Plant response rating, Blackgrass (blackgrass; [4]): 10 | Plant response rating (scale of 0 to 100 where 0 is no effect and 100 is complete control), Velvetleaf (velvetleaf): 25 | Velvetleaf plant response rating (velvetleaf; 62 g ai/ha): 45 | Plant response rating, Velvetleaf (velvetleaf; [3]): 70 | Plant response rating, Velvetleaf (velvetleaf; [4]): 35 | Plant response rating (scale of 0 to 100 where 0 is no effect and 100 is complete control), Waterhemp (waterhemp): 60 | Waterhemp plant response rating (waterhemp; 62 g ai/ha): 60 | Plant response rating, Waterhemp (waterhemp; [3]): 95 | Plant response rating, Waterhemp (waterhemp; [4]): 75 | Plant response rating (scale of 0 to 100 where 0 is no effect and 100 is complete control), Barnyardgrass (barnyardgrass): 5 | Barnyardgrass plant response rating (barnyardgrass): 5 | Plant response rating, Barnyardgrass (barnyardgrass; [3]): 15 | Plant response rating, Barnyardgrass (barnyardgrass; [4]): 5 | Plant response rating (scale of 0 to 100 where 0 is no effect and 100 is complete control), Morningglory (morningglory): 75 | Morningglory plant response rating (morningglory): 90 | Plant response rating, Morningglory (morningglory; [3]): 100 | Plant response rating, Morningglory (morningglory; [4]): 90 | Plant response rating (scale of 0 to 100 where 0 is no effect and 100 is complete control), Oat, Wild (oat, wild): 5 | Oat, Wild plant response rating (oat, wild): 5 | Plant response rating, Oat, Wild (oat, wild; [3]): 35 | Plant response rating, Oat, Wild (oat, wild; [4]): 15 | Plant response rating (scale of 0 to 100 where 0 is no effect and 100 is complete control), Galium (galium): 70 | Galium plant response rating (galium): 70 | Plant response rating, Galium (galium; [3]): 80 | Plant response rating, Galium (galium; [4]): 70 | Plant response rating (scale of 0 to 100 where 0 is no effect and 100 is complete control), Pigweed (pigweed): 50 | Pigweed plant response rating (pigweed): 60 | Plant response rating, Pigweed (pigweed; [3]): 90 | Plant response rating, Pigweed (pigweed; [4]): 80 | Plant response rating (scale of 0 to 100), Lambsquarters (lambsquarters [1]; Preemergence, 250 g ai/ha): 100 | Lambsquarters plant response rating (lambsquarters [1]; [5]): 75 | Lambsquarters plant response rating (lambsquarters [1]; [6]): 100 | Plant response rating, Lambsquarters (lambsquarters [1]; 13 to 15 days): 100 | Plant response rating (scale of 0 to 100 where 0 is no effect and 100 is complete control), Chickweed (chickweed): 50 | Chickweed plant response rating (chickweed): 60 | Plant response rating, Chickweed (chickweed; [3]): 85 | Plant response rating, Chickweed (chickweed; [4]): 70 | Plant response rating (scale of 0 to 100 where 0 is no effect and 100 is complete control), Wheat (wheat): 5 | Wheat plant response rating (wheat; 62 g ai/ha): 5 | Plant response rating, Wheat (wheat; [3]): 30 | Plant response rating, Wheat (wheat; [4]): 15 | Plant response rating (scale of 0 to 100 where 0 is no effect and 100 is complete control), Lambsquarters (lambsquarters [2]): 50 | Lambsquarters plant response rating (lambsquarters [2]): 55 | Plant response rating, Lambsquarters (lambsquarters [2]; [3]): 90 | Plant response rating, Lambsquarters (lambsquarters [2]; [4]): 90

CCc1cc(C(=O)NC(C)C)nn1Cc1ccnc(C(F)(F)F)c1 [Compound 139]
Plant response rating (scale of 0 to 100 where 0 is no effect and 100 is complete control), Kochia (kochia): 60 | Kochia plant response rating (kochia): 75 | Plant response rating, Kochia (kochia; [3]): 85 | Plant response rating, Kochia (kochia; [4]): 85 | Plant response rating (scale of 0 to 100 where 0 is no effect and 100 is complete control), Crabgrass, Large (crabgrass, large): 10 | Crabgrass, Large plant response rating (crabgrass, large): 10 | Plant response rating, Crabgrass, Large (crabgrass, large; [3]): 20 | Plant response rating, Crabgrass, Large (crabgrass, large; [4]): 15 | Plant response rating (scale of 0 to 100 where 0 is no effect and 100 is complete control), Blackgrass (blackgrass): 20 | Blackgrass plant response rating (blackgrass): 20 | Plant response rating, Blackgrass (blackgrass; [3]): 35 | Plant response rating, Blackgrass (blackgrass; [4]): 20 | Plant response rating (scale of 0 to 100 where 0 is no effect and 100 is complete control), Velvetleaf (velvetleaf): 10 | Plant response rating, Velvetleaf (velvetleaf; [3]): 25 | Velvetleaf plant response rating (velvetleaf): 15 | Plant response rating (scale of 0 to 100 where 0 is no effect and 100 is complete control), Waterhemp (waterhemp): 30 | Plant response rating, Waterhemp (waterhemp; [3]): 65 | Waterhemp plant response rating (waterhemp): 55 | Plant response rating (scale of 0 to 100 where 0 is no effect and 100 is complete control), Barnyardgrass (barnyardgrass): 10 | Barnyardgrass plant response rating (barnyardgrass): 10 | Plant response rating, Barnyardgrass (barnyardgrass; [3]): 20 | Plant response rating, Barnyardgrass (barnyardgrass; [4]): 10 | Plant response rating (scale of 0 to 100 where 0 is no effect and 100 is complete control), Morningglory (morningglory): 60 | Morningglory plant response rating (morningglory): 60 | Plant response rating, Morningglory (morningglory; [3]): 80 | Plant response rating, Morningglory (morningglory; [4]): 90 | Plant response rating (scale of 0 to 100 where 0 is no effect and 100 is complete control), Oat, Wild (oat, wild): 10 | Oat, Wild plant response rating (oat, wild): 10 | Plant response rating, Oat, Wild (oat, wild; [3]): 40 | Plant response rating, Oat, Wild (oat, wild; [4]): 30 | Plant response rating (scale of 0 to 100 where 0 is no effect and 100 is complete control), Galium (galium): 50 | Galium plant response rating (galium): 60 | Plant response rating, Galium (galium; [3]): 70 | Plant response rating, Galium (galium; [4]): 60 | Plant response rating (scale of 0 to 100 where 0 is no effect and 100 is complete control), Pigweed (pigweed): 30 | Pigweed plant response rating (pigweed): 40 | Plant response rating, Pigweed (pigweed; [3]): 60 | Plant response rating, Pigweed (pigweed; [4]): 40 | Lambsquarters plant response rating (lambsquarters [1]; [5]): 35 | Lambsquarters plant response rating (lambsquarters [1]; [6]): 85 | Plant response rating, Lambsquarters (lambsquarters [1]; 13 to 15 days): 100 | Lambsquarters plant response rating (lambsquarters [1]; 250 g ai/ha, scale 0 to 100, 0 is no effect, 100 is complete control): 100 | Plant response rating (scale of 0 to 100 where 0 is no effect and 100 is complete control), Chickweed (chickweed): 60 | Chickweed plant response rating (chickweed): 60 | Plant response rating, Chickweed (chickweed; [3]): 80 | Plant response rating, Chickweed (chickweed; [4]): 65 | Plant response rating (scale of 0 to 100 where 0 is no effect and 100 is complete control), Wheat (wheat): 5 | Plant response rating, Wheat (wheat; [3]): 25 | Wheat plant response rating (wheat): 5 | Plant response rating (scale of 0 to 100 where 0 is no effect and 100 is complete control), Lambsquarters (lambsquarters [2]): 40 | Lambsquarters plant response rating (lambsquarters [2]): 55 | Plant response rating, Lambsquarters (lambsquarters [2]; [3]): 85 | Plant response rating, Lambsquarters (lambsquarters [2]; [4]): 70
